Data reported in patent US20260318918A1, “CANCER DIAGNOSTICS AND TREATMENT BY MEANS OF PRMT5 INHIBITOR” (ARGONAUT THERAPEUTICS LIMITED, priority 2022, published 2026).

Tests used:
Assay type in all cases: cell-based
[1] = test system: T-47D cell line (breast cancer); experiment: MTT cell viability assay, T-47D (breast cancer), CRISPR knock-out; conditions: 8 days; for sensitivity to PRMT5 inhibition (cell viability) of cells lacking E2F1: E2F1 deleted by CRISPR; for sensitivity to PRMT5 inhibition (cell viability) of cells lacking pRb: pRb deleted by CRISPR
Description: (§1) T-47D cells were maintained in growth medium (RPMI 1640 supplemented with 10% v/v heat inactivated fetal bovine serum and cultured at 37° C., 5% CO2, U2OS, MCF7 and HCT116 cells were maintained in growth medium (DMEM supplemented with 10% v/v heat inactivated fetal bovine serum) and cultured at 37° C., 5% CO2. Under assay conditions, cells were incubated in assay medium (RPMI 1640 or […] supplemented with 10% v/v heat inactivated fetal bovine serum and 100 units/mL penicillin-streptomycin) at 37° C. under 5% CO2. For the assessment of the effect of compounds on the proliferation of the cancer cell lines, exponentially growing cells were plated into 96-well plates overnight at a density of 1,000 cells/well in a final volume of 100 μl of cell growth medium. The next day the cells were dosed with compounds (T-992, GSK3326595, LLY-283, PF-06939999 and JNJ64619178) (quadruplicate ten-point 5-fold serial dilutions in DMSO), beginning at 100 μM. After addition of compounds, assay plates were incubated for 8 days at 37° C., 5% CO2, relative humidity 90%. NAD(P)H-dependent cellular oxidoreductase enzyme activity was measured by adding 100 μl thiazolyl blue tetrazolium bromide (MTT: Sigma-Aldrich) to the wells at a final concentration of 5 μM and incubated for 2 h at 37° C. Next, media was discarded from the wells and the formazan crystals were dissolved in 100 μl DMSO by shaking for 15 min. Absorbance was read on the Omega FLUOstar plate reader (BMG Labtech Ltd, Ortenberg, Germany) at a wavelength of 584 nm. Data were analysed and IC50 values determined using MARs data analysis software (BMG Labtech Ltd, Ortenberg, Germany). The concentration of compound inhibiting cell viability by 50% was determined using a 4-parametric fit of the normalized dose response curves.
(§2) pSpCas9(BB)-2A-Puro (Addgene plasmid ID: 48139) was used for the generation of E2F1 and pRb knock out cell lines using CRISPR-Cas9 technology. Cell lines were generated as detailed in (Ran et al., 2013).

[2] = test system: HCT116 cell line (colorectal cancer); experiment: MTT cell viability assay, HCT116 (colorectal cancer), CRISPR knock-out; conditions: E2F1 deleted by CRISPR, 8 days
Description: as §1, §2

[3] = test system: U20S cell line (bone cancer); experiment: MTT cell viability assay, U20S (bone cancer), CRISPR knock-out; conditions: pRb deleted by CRISPR, 8 days
Description: as §1, with “The next day the cells were dosed with compounds (T-992, GSK3326595, LLY-283, PF-06939999 and JNJ64619178) (quadruplicate ten-point 5-fold serial dilutions in DMSO), beginning at 100 μM. After addition of compounds, assay plates were incubated for 8 days at 37° C., 5% CO2, relative humidity 90%.” left out, “Next, media was discarded from the wells and the formazan crystals were dissolved in 100 μl DMSO by shaking for 15 min.” left out, “curves. […]” for “curves.”

Compound | sensitivity to PRMT5 inhibition (cell viability) of cells lacking E2F1 [1] | sensitivity to PRMT5 inhibition (cell viability) of cells lacking pRb [1] | sensitivity to PRMT5 inhibition (cell viability) of cells lacking E2F1 [2] | sensitivity to PRMT5 inhibition (cell viability) of cells lacking pRb [3]
O[C@@H]1CO[C@H]2[C@@H]1OC[C@@H]2O [AT101] | less sensitive | more sensitive | less sensitive | more sensitive
CC(=O)N1CCC(Nc2cc(C(=O)NC[C@H](O)CN3CCc4ccccc4C3)ncn2)CC1 [GSK3326595] | less sensitive | more sensitive | less sensitive | –
Nc1nc2cc(CC[C@H]3C[C@@H](n4ccc5c(N)ncnc54)[C@H](O)[C@@H]3O)ccc2cc1Br [JNJ64619178] | less sensitive | – | less sensitive | –
Nc1ncnc2c1ccn2[C@@H]1O[C@H]([C@H](O)c2ccccc2)[C@@H](O)[C@H]1O [LLY-283] | less sensitive | – | less sensitive | –
Cc1ncnc2c1ccn2[C@@H]1C[C@H](Oc2cc(C(F)F)c(F)c3c2CNCC3)[C@@H](O)[C@H]1O [PF06939999] | less sensitive | more sensitive | less sensitive | –
